Assay results from patent US9073892B2, “Indazolyl triazol derivatives” (Merck Serono S.A., priority 2010, dated 2015).

Experiments:
[1] = tested on: IL1β-induced IL8 release in THP1 cells; test: IRAK IL8 secretion functional assay; type: cell-based; settings: Homo sapiens; THP-1 cells, IL1β 100 ng/ml overnight, IL8 by HTRF; read-out: IC50, Secretion THP-1/IL-β induced IL8 release
Description: IRAK IL8 Secretion Functional Assay:
THP1 cells are human monocytes derived from acute monocytic leukemia. IL1β receptor expressed on the surface membrane of THP1 cells induced IL8 release. IRAKs are kinase signaling downstream of TLRs and TNF, IL-18, IL-33 and IL-1 receptors.
In cells, IRAK4 is upstream of IRAK1.
The Human IL8 Kit, provided by CysBio International based in Bagnols/Cèze FR, allows for the quantitative determination of IL-8 in cell-culture supernatants.
Anti-cytokine IL8 antibodies are respectively labeled with europium Cryptate and XL665. Upon their binding to IL-8 molecules, the two antibodies come into close proximity, allowing FRET (Fluorescence Resonance Energy Transfer) to occur. This FRET increases proportionally to IL-8 concentrations and be converted in IL8 pg amounts.
THP-1 cells are seeded on Day 1 in 384 well plate with RPMI 1640 at a density of 30 000 cells/well. Compounds 4×/2% DMSO (range of concentrations from 20 μM to 1 nM) and IL1β 4× at 100 ng/ml final are added to cells overnight at 37° C., 5% CO2. Measurement of IL-8 secretion is done by mixing on Day2 10 μl of supernatant with 10 μl of a mix solution of europium Cryptate and XL665 (v:v) as described by supplier.
HTRF (homogeneous time resolved fluorescence) signal is measured after 3 hours incubation time at 30° C. with a BMG Pherastar reader or equivalent.

[2] = tested on: T1, IRAK1/4 human; test: IRAK1/4 phosphorylation IC50 (enzymatic assay, table 2); type: biochemical; settings: human IRAK1/4 phosphorylation
T1 construct: fused on or other part: His tag and TEV cleavage site at the N-terminus
Summary of the method: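 Inhibition values are IC50s. They come from 384-well reactions in which His-TEV-tagged human IRAK-1 or IRAK-4 (the latter with STK1-biotin peptide) met ATP and compounds in DMSO at 20 µM to 1 nM. The buffer was 50 mM Hepes pH7.0 containing MgCl2, DTT, EGTA and BSA, and incubation lasted 2 or 3 hours.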

SMILES	IC50 [1]	IC50 [2]
O=C(c1ccc(-n2cc(-c3n[nH]c4ccc(Cn5nc(-c6cc(F)cc(F)c6)ccc5=O)cc34)nn2)cc1)N1CCOCC1 [Example 94, 6-(3,5-difluorophenyl)-2-[(3-{1-[4-(morpholin-4-ylcarbonyl)phenyl]-1H-1,2,3-triazol-4-yl}-1H-indazol-5-yl)methyl]pyridazin-3(2H)-one]	100 to 1000 nM	< 100 nM
O=C(c1ccc(-n2cc(-c3n[nH]c4ccc(Cn5ncccc5=O)cc34)nn2)cc1)N1CCOCC1 [Example 95, 2-[(3-{1-[4-(morpholin-4-ylcarbonyl)phenyl]-1H-1,2,3-triazol-4-yl}-1H-indazol-5-yl)methyl]pyridazin-3(2H)-one]	1000 to 5000 nM	100 to 1000 nM
O=C(c1ccc(-n2cc(-c3n[nH]c4ccccc34)nn2)cc1)N1CCC[C@@H](O)C1 [Example 96, (3R)-1-{4-[4-(1H-indazol-3-yl)-1H-1,2,3-triazol-1-yl]benzoyl}piperidin-3-ol]	100 to 1000 nM	100 to 1000 nM
O=C(c1ccc(-n2cc(-c3n[nH]c4ccccc34)nn2)cc1)N1CCC[C@H](O)C1 [Example 97, (3S)-1-{4-[4-(1H-indazol-3-yl)-1H-1,2,3-triazol-1-yl]benzoyl}piperidin-3-ol]	100 to 1000 nM	100 to 1000 nM
O=C(c1ccc(-n2cc(-c3n[nH]c4ccc(Cn5nc(-c6ccncc6)ccc5=O)cc34)nn2)cc1)N1CCOCC1 [Example 103, 2-[(3-{1-[4-(morpholin-4-ylcarbonyl)phenyl]-1H-1,2,3-triazol-4-yl}-1H-indazol-5-yl)methyl]-6-pyridin-4-ylpyridazin-3(2H)-one]	100 to 1000 nM	< 100 nM
CN1CC=C(c2ccc3[nH]nc(-c4cn(-c5ccc(C(=O)N6CCOCC6)cc5)nn4)c3c2)CC1 [Example 104, 5-(1-methyl-1,2,3,6-tetrahydropyridin-4-yl)-3-{1-[4-(morpholin-4-ylcarbonyl)phenyl]-1H-1,2,3-triazol-4-yl}-1H-indazole]	100 to 1000 nM	< 100 nM
CC(=O)N1CCC(c2ccc3[nH]nc(-c4cn(-c5ccc(C(=O)N6CCOCC6)cc5)nn4)c3c2)CC1 [Example 105, 5-(1-acetylpiperidin-4-yl)-3-{1-[4-(morpholin-4-ylcarbonyl)phenyl]-1H-1,2,3-triazol-4-yl}-1H-indazole]	1000 to 5000 nM	100 to 1000 nM
O=C(c1ccc(-n2cc(-c3n[nH]c4ccc(C5=CCN(Cc6ccccc6)CC5)cc34)nn2)cc1)N1CCOCC1 [Example 106, 5-(1-benzyl-1,2,3,6-tetrahydropyridin-4-yl)-3-{1-[4-(morpholin-4-ylcarbonyl)phenyl]-1H-1,2,3-triazol-4-yl}-1H-indazole]	1000 to 5000 nM	100 to 1000 nM

More lines, now with the values ahead:

IC50 [1]	IC50 [2]	SMILES
1000 to 5000 nM	100 to 1000 nM	O=C(c1ccc(-n2cc(-c3n[nH]c4ccc(CO)cc34)nn2)cc1)N1CCOCC1 [Example 93, (3-{1-[4(morpholin-4-ylcarbonyl)phenyl]-1H-1,2,3-triazol-4-yl}-1H-indazol-5-yl)methanol]
100 to 1000 nM	< 100 nM	CN1CCC(n2cc(NC(=O)c3ccc(-n4cc(-c5n[nH]c6ccccc56)nn4)cc3)cn2)CC1 [Example 98, 4-[4-(1H-indazol-3-yl)-1H-1,2,3-triazol-1-yl]-N-[1-(1-methylpiperidin-4-yl)-1H-pyrazol-4-yl]benzamide]
100 to 1000 nM	100 to 1000 nM	O=C(c1ccc(-n2cc(-c3n[nH]c4ccccc34)nn2)cc1)N1CCC[C@H]1CO [Example 99]
100 to 1000 nM	100 to 1000 nM	O=C(c1ccc(-n2cc(-c3n[nH]c4ccccc34)nn2)cc1)N1CCCCC1CO (centres unmarked) [Example 100, (1-{4-[4-(1H-indazol-3-yl)-1H-1,2,3-triazol-1-yl]benzoyl}piperidin-2-yl)methanol]
1000 to 5000 nM	100 to 1000 nM	O=C(c1ccc(-n2cc(-c3n[nH]c4ccccc34)nn2)cc1C(F)(F)F)N1CCOCC1 [Example 101, 3-{1-[4-(morpholin-4-ylcarbonyl)-3-(trifluoromethyl)phenyl]-1H-1,2,3-triazol-4-yl}-1H-indazole]
